Assay results as given in patent US9056814B2, “Polymorphic form of a calcimimetic compound” (LEO PHARMA A/S, priority 2010, dated 2015).

Columns and labels:
Format in all cases: physicochemical
[1] = Aqueous solubility as a function of pH; settings: room temperature, conclusion from Table 6
Method: The aqueous solubility of Form C and Form X was determined as a function of pH at 25° C. in 0.1N HCl (pH 1.0) and in Sorensen phosphate buffers at pH 2.0, 4.0, 6.0 and 8.0. For each pH value two individual determinations were made. Form C or Form X was weighed out (11 mg for pH 1, 4 mg for pH 2-8) in scintillation vials and 4 ml 0.1N HCl or buffer was added. The vials were shaken for 24 hours at 25° C. After 24 hours it was checked that the vial still contained undissolved material. The suspensions were filtered through a 0.45 μm filter, which was first saturated with app. 0.5 ml filtrate. The resulting filtrates were diluted and analyzed by HPLC vs. a standard curve.

[2] = Competitive slurrying experiments (XRPD follow-up); settings: for Polymorphic stability/conversion in competitive slurrying: MeOH suspension 30 mg/mL, 14 days, 5° C., room temperature and reflux (65° C.)
Method: The suspensions at 5° C. and r.t. were prepared in 4 mL vials with caps and equipped with a small magnetic stirrer bar. The suspensions were stirred at approximately 500 rpm. for two weeks. The suspensions prepared at high temperature were prepared in 10 mL Erlenmeyer flask equipped with a magnetic stirrer bar and reflux condenser.
Samples of the suspensions were taken at time=0, 1 day, 7 days and 14 days and investigated by XRPD.

[3] = Stress stability test for solid state transformation; settings: 60° C., 60° C./75% relative humidity and 80° C./75% relative humidity; 4 weeks
Method: Polymorph Form C, Form X and mixtures of the two polymorphic forms C+X have all been tested at different conditions of temperature and relative humidity for signs of solid state transformation. The stress stability test was carried out at three sets of conditions: 60° C., 60° C./75% relative humidity and 80° C./75% relative humidity, and samples were analyzed after 1, 2 and 4 weeks, ie. after 7, 14 and 28 days.
One 1.8 ml amber screw top vial (27267-U, Supelco) containing between 50 and 100 mg {4-[(1R,3S)-3-((R)-1-Naphthalen-1-yl-ethylamino)-cyclopentyl]-phenoxy}-acetic acid was tested per individual set of conditions. The vials to be tested at 60° C. were closed with a PTFE lined black polypropylene solid cap (27416, Supelco) and placed in a thermostated heating cabinet. The vials to be tested at 60° C./75% relative humidity and 80° C./75% relative humidity were placed uncapped in a desiccator containing a saturated NaCl solution. The desiccator was subsequently placed in a thermostated heating cabinet.
The samples were analyzed at 1, 2 and 4 weeks for • 1. Visual appearance • 2. HPLC assay and impurities • 3. Polymorph characterization

[4] = Transition temperature of the enantiotropic polymorphs from melting enthalpy and melting points; settings: estimated from melting enthalpy and melting points of Form C and Form X
Method: From careful measurements of melting enthalpy and melting points of both forms, the transition temperature has been estimated to lie between 120 to 145° C.
Differential scanning calorimetry (DSC): DSC experiments were carried out using a Perkin Elmer DSC8500 system. About 0.5-3 mg of sample was used for the measurements. An aluminium pan was used for the analysis and was sealed by applying pressure by hand and pushing each part of the pan together. The temperature was ramped from −60 to 270° C. at 20° C./min. Nitrogen was used as the purge gas with a flow rate of 20 mL/min.

[5] = Thermo gravimetric analysis (TGA); settings: Graph 4a (Form C sample), ±2° C.
Method: Thermo gravimetric analysis (TGA): TGA experiments were conducted using a Perkin Elmer Pyris 1 TGA instrument. About 10-20 mg of sample was loaded into a ceramic pan for the measurements. The sample temperature was ramped from 25 to 350° C. at 10° C./min. Nitrogen was used as the purge gas at a flow rate of 40 mL/min.

Row | Solubility of Form X relative to Form C [1] | Polymorphic conversion in competitive slurrying ([2]; competitive slurrying at 110° C.) | 4 week stress stability test, solid state transformation [3] | Transition temperature (estimated) [4] [°C] | Transition temperature at which the two polymorphs are equally stable ([2]; lower bound from competitive slurrying of Form C and Form X) | Temperature below which stable towards degradation (TGA trail) [5] | SMILES | Polymorphic stability/conversion in competitive slurrying [2] | Polymorphic stability/conversion in competitive slurrying ([2]; listed as mixtures of Form X+C)
1 | higher compared to Form C | transformation of Form X to Form C | without any solid state transformation |  |  |  | C[C@@H](NC1CCC(c2ccc(OCC(=O)O)cc2)C1)c1cccc2ccccc12 (stereo in doubt) [Form X, {4-[(1R,3S)-3-((R)-1-Naphthalen-1-yl-ethylamino)-cyclopentyl]-phenoxy}-acetic acid] | convert to pure Form C at all three temperatures | 
2 |  |  | without any solid state transformation | 120 to 145 | above 110 °C | below 255 °C | C[C@@H](NC1CCC(c2ccc(OCC(=O)O)cc2)C1)c1cccc2ccccc12 (stereo in doubt) [{4-[(1R,3S)-3-((R)-1-Naphthalen-1-yl-ethylamino)-cyclopentyl]-phenoxy}-acetic acid] |  | convert to pure Form C at all three temperatures
3 |  |  | without any solid state transformation |  |  |  | C[C@@H](NC1CCC(c2ccc(OCC(=O)O)cc2)C1)c1cccc2ccccc12 (stereo in doubt) [Form C, {4-[(1R,3S)-3-((R)-1-Naphthalen-1-yl-ethylamino)-cyclopentyl]-phenoxy}-acetic acid] | stable at all three temperatures | 
